Experimental data from ChEMBL document CHEMBL5579851, “Synthesis and antifungal evaluation of novel triazole derivatives bearing a pyrazole-methoxyl moiety” (Eur J Med Chem, 2024).
Values after ≈ are worked out from the molar mass of the structure shown. Active and inactive are the calls of the source. No cut-off for these calls is given here.

Experiments:
Candida tropicalis [1] = assay: Antifungal activity against Candida tropicalis 8915 assessed as inhibition of fungal growth incubated for 48 hrs by CLSI based broth microdilution assay; type: functional
Saccharomyces cerevisiae [2] = assay: Antifungal activity against recombinant Saccharomyces cerevisiae Y2300 overexpressing ScErg11 assessed as inhibition of fungal growth incubated for 48 hrs by CLSI based broth microdilution assay; type: functional
Saccharomyces cerevisiae [3] = assay: Antifungal activity against recombinant Saccharomyces cerevisiae Y2768 overexpressing CauErg11 T132F mutant assessed as inhibition of fungal growth incubated for 48 hrs by CLSI based broth microdilution assay; type: functional
Candida albicans [4] = assay: Antifungal activity against Candida albicans SC5314 assessed as inhibition of fungal growth incubated for 48 hrs by CLSI based broth microdilution assay; type: functional
Saccharomyces cerevisiae [5] = assay: Antifungal activity against recombinant Saccharomyces cerevisiae Y2769 overexpressing CauErg11 K143R mutant assessed as inhibition of fungal growth incubated for 48 hrs by CLSI based broth microdilution assay; type: functional
Candida albicans [6] = assay: Antifungal activity against fluconazole-resistant Candida albicans 904 assessed as inhibition of fungal growth incubated for 48 hrs by CLSI based broth microdilution assay; type: functional
Saccharomyces cerevisiae [7] = assay: Antifungal activity against recombinant Saccharomyces cerevisiae Y570 overexpressing CaCdr1 assessed as inhibition of fungal growth incubated for 48 hrs by CLSI based broth microdilution assay; type: functional
[8] = biological target: T1, Lanosterol 14-alpha demethylase (Candida albicans (strain SC5314 / ATCC MYA-2876) (Yeast), UniProt P10613); assay: Inhibition of CYP51 in Candida albicans SC5314 assessed as eburicol level at 0.0625 ug/ml after 8 hrs by GC-MS analysis relative to control; set-up: scale not given: the % may be the effect or the level left; conditions: at 0.0625 µg/mL
T1 sequence (P10613 whole entry): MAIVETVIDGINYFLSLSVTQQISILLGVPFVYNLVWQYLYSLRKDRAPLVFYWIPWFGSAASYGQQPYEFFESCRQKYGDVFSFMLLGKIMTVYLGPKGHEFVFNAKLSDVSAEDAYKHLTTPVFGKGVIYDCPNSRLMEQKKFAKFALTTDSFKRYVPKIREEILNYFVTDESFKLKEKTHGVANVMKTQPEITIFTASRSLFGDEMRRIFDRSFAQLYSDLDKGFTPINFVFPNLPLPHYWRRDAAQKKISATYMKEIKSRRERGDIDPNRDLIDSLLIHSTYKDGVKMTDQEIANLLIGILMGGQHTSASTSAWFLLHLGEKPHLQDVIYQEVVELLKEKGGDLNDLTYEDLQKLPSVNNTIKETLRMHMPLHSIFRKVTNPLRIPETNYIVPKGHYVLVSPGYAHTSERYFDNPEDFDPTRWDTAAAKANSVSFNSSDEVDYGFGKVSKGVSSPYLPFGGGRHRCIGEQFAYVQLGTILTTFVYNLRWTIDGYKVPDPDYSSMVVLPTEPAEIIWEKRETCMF

Saccharomyces cerevisiae [9] = assay: Selectivity index, ratio of MIC for antifungal activity against recombinant Saccharomyces cerevisiae Y525 overexpressing CaMdr1 to MIC for antifungal activity against recombinant Saccharomyces cerevisiae Y2411 overexpressing ScErg11; type: functional
Candida albicans [10] = assay: Antifungal activity against Candida albicans SC5314 assessed as inhibition of fungal growth at 0.125 ug/ml after 48 hrs by TECAN plate reader analysis relative to control; type: functional
Saccharomyces cerevisiae [11] = assay: Antifungal activity against recombinant Saccharomyces cerevisiae Y2721 overexpressing CpErg11/CpCpr assessed as inhibition of fungal growth incubated for 48 hrs by CLSI based broth microdilution assay; type: functional
Pichia kudriavzevii = assay: Antifungal activity against Candida krusei 4996 assessed as inhibition of fungal growth incubated for 48 hrs by CLSI based broth microdilution assay; type: functional
Candida tropicalis [12] = assay: Potency index, ratio of ravuconazole MIC to test compound MIC for antifungal activity against Candida tropicalis 8915 assessed as inhibition of fungal growth incubated for 48 hrs by CLSI based broth microdilution assay; type: functional
Cell membrane = assay: Induction of membrane permeabilization in Candida albicans SC5314 assessed as increase in fluorescence at 0.0625 to 0.5 ug/ml incubated for 8 hrs by propidium iodide staining based fluorescence microscopic analysis; conditions: dose 0.0625-0.5 µg/ml
Candida tropicalis [13] = assay: Potency index, ratio of fluconazole MIC to test compound MIC for antifungal activity against Candida tropicalis 8915 assessed as inhibition of fungal growth incubated for 48 hrs by CLSI based broth microdilution assay; type: functional
Candida parapsilosis [14] = assay: Antifungal activity against Candida parapsilosis 22019 assessed as inhibition of fungal growth incubated for 48 hrs by CLSI based broth microdilution assay; type: functional; conditions: Lodderomyces parapsilosis
[15] = biological target: T1, Lanosterol 14-alpha demethylase; assay: Inhibition of CYP51 in Candida albicans SC5314 assessed as obtusifoliol level at 0.0625 ug/ml after 8 hrs by GC-MS analysis relative to control; set-up: scale not given: the % may be the effect or the level left; conditions: at 0.0625 µg/mL
Candida albicans [16] = assay: Antifungal activity against Candida albicans 10231 assessed as inhibition of fungal growth incubated for 48 hrs by CLSI based broth microdilution assay; type: functional
Saccharomyces cerevisiae [17] = assay: Antifungal activity against recombinant Saccharomyces cerevisiae Y2301 overexpressing ScErg11 Y140F mutant assessed as inhibition of fungal growth incubated for 48 hrs by CLSI based broth microdilution assay; type: functional
Saccharomyces cerevisiae [18] = assay: Antifungal activity against recombinant Saccharomyces cerevisiae Y2513 overexpressing ScErg11 Y140H mutant assessed as inhibition of fungal growth incubated for 48 hrs by CLSI based broth microdilution assay; type: functional
Saccharomyces cerevisiae [19] = assay: Antifungal activity against recombinant Saccharomyces cerevisiae Y2711 overexpressing CnErg11 assessed as inhibition of fungal growth incubated for 48 hrs by CLSI based broth microdilution assay; type: functional
Saccharomyces cerevisiae [20] = assay: Antifungal activity against recombinant Saccharomyces cerevisiae Y2765 overexpressing CauMdr1 assessed as inhibition of fungal growth incubated for 48 hrs by CLSI based broth microdilution assay; type: functional
Candida albicans [21] = assay: Antibiofilm activity against Candida albicans SC5314 assessed as increase in matured biofilm distruption incubated for 24 hrs by XTT assay; type: functional, organism-based; conditions: dose 0.25-64 µg/ml
Saccharomyces cerevisiae [22] = assay: Antifungal activity against recombinant Saccharomyces cerevisiae Y2766 overexpressing CauCdr1 assessed as inhibition of fungal growth incubated for 48 hrs by CLSI based broth microdilution assay; type: functional
Nakaseomyces glabratus [23] = assay: Antifungal activity against Candida glabrata 537 assessed as inhibition of fungal growth incubated for 48 hrs by CLSI based broth microdilution assay; type: functional
Candida parapsilosis [24] = assay: Antifungal activity against Candida parapsilosis 22019 assessed as inhibition of fungal growth at 0.125 ug/ml measured up to 48 hrs by TECAN plate reader analysis; type: functional, organism-based; conditions: dose 0.125 µg/ml
Nakaseomyces glabratus [25] = assay: Antifungal activity against Candida glabrata 537 assessed as inhibition of fungal growth at 2 ug/ml measured up to 48 hrs by TECAN plate reader analysis; type: functional, organism-based; conditions: dose 2.0 µg/ml
Saccharomyces cerevisiae [26] = assay: Antifungal activity against recombinant Saccharomyces cerevisiae Y2767 overexpressing CauErg11 assessed as inhibition of fungal growth incubated for 48 hrs by CLSI based broth microdilution assay; type: functional
Saccharomyces cerevisiae [27] = assay: Antifungal activity against recombinant Saccharomyces cerevisiae Y525 overexpressing CaMdr1 assessed as inhibition of fungal growth incubated for 48 hrs by CLSI based broth microdilution assay; type: functional
Candida albicans [28] = assay: Antifungal activity against Candida albicans SC5314 assessed as inhibition of hyphae formation at 0.625 ug/ml after 3 hrs by inverted microscopic analysis relative to control; type: functional
Cryptococcus neoformans = assay: Antifungal activity against Cryptococcus neoformans 32609 assessed as inhibition of fungal growth incubated for 72 hrs by CLSI based broth microdilution assay; type: functional
Saccharomyces cerevisiae [29] = assay: Antifungal activity against recombinant Saccharomyces cerevisiae Y2411 overexpressing ScErg11 assessed as inhibition of fungal growth incubated for 48 hrs by CLSI based broth microdilution assay; type: functional
Saccharomyces cerevisiae [30] = assay: Antifungal activity against recombinant Saccharomyces cerevisiae Y2459 overexpressing CaErg11/CaCpr assessed as inhibition of fungal growth incubated for 48 hrs by CLSI based broth microdilution assay; type: functional
[Candida] auris = Antifungal activity against fluconazole-resistant Candida auris 919 assessed as inhibition of fungal growth incubated for 48 hrs by CLSI based broth microdilution assay; type: functional; conditions: Candidozyma auris
Saccharomyces cerevisiae [31] = assay: Antifungal activity against recombinant Saccharomyces cerevisiae Y2374 overexpressing CgErg11 assessed as inhibition of fungal growth incubated for 48 hrs by CLSI based broth microdilution assay; type: functional
Candida albicans [32] = assay: Antibiofilm activity against Candida albicans SC5314 assessed as inhibition of biofilm formation at 64 ug/mL incubated for 24 hrs by XTT assay relative to control; type: functional

What does the source list for `C[C@@H](OCc1ccn(Cc2ccc(Cl)cc2)n1)[C@](O)(Cn1cncn1)c1ccc(F)cc1F`?
MIC (Candida tropicalis [1]): 0.25 µg/mL (≈ 0.528 µM); MIC (Saccharomyces cerevisiae [2]): 0.0313 µg/mL; MIC (Saccharomyces cerevisiae [3]): 0.0313 µg/mL; MIC (Candida albicans [4]): ≤ 0.125 µg/mL; MIC (Saccharomyces cerevisiae [5]): 0.008 µg/mL; MIC (Candida albicans [6]): 8 µg/mL (≈ 16.9 µM); MIC (Saccharomyces cerevisiae [7]): 16 µg/mL; Activity [8]: ~ 20%; Ratio (Saccharomyces cerevisiae [9]): 16; inhibition at 0.125 µg/mL (Candida albicans [10]): 100%; MIC (Saccharomyces cerevisiae [11]): 0.016 µg/mL; MIC (Pichia kudriavzevii): 2 µg/mL (≈ 4.22 µM); Ratio (Candida tropicalis [12]): 32; Activity (Cell membrane): Active; Ratio (Candida tropicalis [13]): 256; MIC (Candida parapsilosis [14]): 0.25 µg/mL (≈ 0.528 µM); Activity [15]: ~ 20%; MIC (Candida albicans [16]): ≤ 0.125 µg/mL; MIC (Saccharomyces cerevisiae [17]): 0.008 µg/mL; MIC (Saccharomyces cerevisiae [18]): 0.008 µg/mL; MIC (Saccharomyces cerevisiae [19]): 0.008 µg/mL; MIC (Saccharomyces cerevisiae [20]): 0.063 µg/mL; Activity (Candida albicans [21]): Dose-Dependent Effect; MIC (Saccharomyces cerevisiae [22]): 2 µg/mL; MIC (Nakaseomyces glabratus [23]): ≤ 0.125 µg/mL; inhibition (Candida parapsilosis [24]): Active; inhibition (Nakaseomyces glabratus [25]): inactive; MIC (Saccharomyces cerevisiae [26]): 0.008 µg/mL; MIC (Saccharomyces cerevisiae [27]): 0.125 µg/mL; inhibition at 0.625 µg/mL (Candida albicans [28]): 100%; MIC (Cryptococcus neoformans): ≤ 0.125 µg/mL; MIC (Saccharomyces cerevisiae [29]): 0.008 µg/mL; MIC (Saccharomyces cerevisiae [30]): 0.008 µg/mL; MIC ([Candida] auris): 8 µg/mL (≈ 16.9 µM); MIC (Saccharomyces cerevisiae [31]): 0.008 µg/mL; inhibition at 64 µg/mL (Candida albicans [32]): > 55%
